In the NIST ThermoML archive (doi:10.1016/j.jct.2016.12.032):

Assay: xn = mol fraction of the nth substance listed
Conditions: 100 kPa, Liquid; for viscosity: Capillary tube (Ostwald / Ubbelohde) method; for mass density: Vibrating tube method

O=C1CCCCO1 [1-oxacyclohexan-2-one] + CCCC[n+]1ccn(C)c1.O=S(=O)([N-]S(=O)(=O)C(F)(F)F)C(F)(F)F
Conditions	mass density [kg/m3]	viscosity [mPa·s]
293.15 K, x2 = 0	1108.53	3.68
293.15 K, x2 = 0.0532	1156.68	4.6
293.15 K, x2 = 0.1004	1196.3	5.91
293.15 K, x2 = 0.1504	1229.63	7.47
293.15 K, x2 = 0.1999	1257.2	8.95
293.15 K, x2 = 0.2988	1300.9	13.08
293.15 K, x2 = 0.4006	1337.77	17.95
293.15 K, x2 = 0.5005	1362.9	23.77
293.15 K, x2 = 0.5999	1384.82	30.89
293.15 K, x2 = 0.7	1402.18	37.58
293.15 K, x2 = 0.8013	1418.26	44.8
293.15 K, x2 = 0.8986	1429.23	52.57
298.15 K, x2 = 0	1103.96	3.3
298.15 K, x2 = 0.0532	1152.03	4.09
298.15 K, x2 = 0.1004	1191.61	5.26
298.15 K, x2 = 0.1504	1224.89	6.47
298.15 K, x2 = 0.1999	1252.42	7.78
298.15 K, x2 = 0.2988	1296.08	11.15
298.15 K, x2 = 0.4006	1332.91	15.14
298.15 K, x2 = 0.5005	1358.02	19.8
298.15 K, x2 = 0.5999	1379.92	25.62
298.15 K, x2 = 0.7	1397.27	31.17
298.15 K, x2 = 0.8013	1413.33	37.32
298.15 K, x2 = 0.8986	1424.29	43.18
303.15 K, x2 = 0	1099.44	2.98
303.15 K, x2 = 0.0532	1147.37	3.7
303.15 K, x2 = 0.1004	1186.86	4.58
303.15 K, x2 = 0.1504	1220.09	5.64
303.15 K, x2 = 0.1999	1247.58	6.74
303.15 K, x2 = 0.2988	1291.17	9.63
303.15 K, x2 = 0.4006	1327.96	12.92
303.15 K, x2 = 0.5005	1353.03	16.77
303.15 K, x2 = 0.5999	1374.9	21.34
303.15 K, x2 = 0.7	1392.22	25.71
303.15 K, x2 = 0.8013	1408.28	30.93
303.15 K, x2 = 0.8986	1419.22	35.78
308.15 K, x2 = 0	1094.83	2.7
308.15 K, x2 = 0.0532	1142.72	3.21
308.15 K, x2 = 0.1004	1182.16	4.08
308.15 K, x2 = 0.1504	1215.34	5.09
308.15 K, x2 = 0.1999	1242.79	6.06
308.15 K, x2 = 0.2988	1286.33	8.42
308.15 K, x2 = 0.4006	1323.08	11.04
308.15 K, x2 = 0.5005	1348.13	14.16
308.15 K, x2 = 0.5999	1369.99	18.33
308.15 K, x2 = 0.7	1387.29	21.9
308.15 K, x2 = 0.8013	1403.33	25.49
308.15 K, x2 = 0.8986	1414.26	29.16
313.15 K, x2 = 0	1090.27	2.47
313.15 K, x2 = 0.0532	1138.1	2.9
313.15 K, x2 = 0.1004	1177.47	3.67
313.15 K, x2 = 0.1504	1210.6	4.49
313.15 K, x2 = 0.1999	1238.01	5.31
313.15 K, x2 = 0.2988	1281.5	7.36
313.15 K, x2 = 0.4006	1318.2	9.61
313.15 K, x2 = 0.5005	1343.21	12.24
313.15 K, x2 = 0.5999	1365.03	15.74
313.15 K, x2 = 0.7	1382.31	18.59
313.15 K, x2 = 0.8013	1398.33	21.65
313.15 K, x2 = 0.8986	1409.25	24.7
318.15 K, x2 = 0	1085.71	2.25
318.15 K, x2 = 0.0532	1133.47	2.63
318.15 K, x2 = 0.1004	1172.79	3.24
318.15 K, x2 = 0.1504	1205.87	4.02
318.15 K, x2 = 0.1999	1233.25	4.72
318.15 K, x2 = 0.2988	1276.69	6.55
318.15 K, x2 = 0.4006	1313.34	8.49
318.15 K, x2 = 0.5005	1338.33	10.65
318.15 K, x2 = 0.5999	1360.13	13.7
318.15 K, x2 = 0.7	1377.38	15.98
318.15 K, x2 = 0.8013	1393.37	18.79
318.15 K, x2 = 0.8986	1404.27	21.14
323.15 K, x2 = 0	1081.16	2.09
323.15 K, x2 = 0.0532	1128.86	2.44
323.15 K, x2 = 0.1004	1168.12	2.96
323.15 K, x2 = 0.1504	1201.16	3.63
323.15 K, x2 = 0.1999	1228.6	4.26
323.15 K, x2 = 0.2988	1271.85	5.82
323.15 K, x2 = 0.4006	1308.45	7.49
323.15 K, x2 = 0.5005	1333.4	9.29
323.15 K, x2 = 0.5999	1355.18	11.2
323.15 K, x2 = 0.7	1372.41	13.85
323.15 K, x2 = 0.8013	1388.38	15.68
323.15 K, x2 = 0.8986	1399.26	17.85

CC1CC(=O)O1 (stereo unspecified) [4-methyl-2-oxetanone] + CCCC[n+]1ccn(C)c1.O=S(=O)([N-]S(=O)(=O)C(F)(F)F)C(F)(F)F
Conditions	mass density [kg/m3]	viscosity [mPa·s]
293.15 K, x2 = 0	1055.93	1.68
293.15 K, x2 = 0.0493	1119.77	2.14
293.15 K, x2 = 0.1001	1167.52	2.75
293.15 K, x2 = 0.1526	1207.48	3.44
293.15 K, x2 = 0.2001	1240.41	4.75
293.15 K, x2 = 0.3001	1291.51	7.22
293.15 K, x2 = 0.4013	1329.17	10.69
293.15 K, x2 = 0.5004	1358.85	15.69
293.15 K, x2 = 0.5995	1382.95	22.26
293.15 K, x2 = 0.6929	1401.02	29.27
293.15 K, x2 = 0.814	1415.81	40.15
293.15 K, x2 = 0.9001	1434.72	50.31
298.15 K, x2 = 0	1050.68	1.55
298.15 K, x2 = 0.0493	1114.58	1.97
298.15 K, x2 = 0.1001	1162.33	2.52
298.15 K, x2 = 0.1526	1202.28	3.17
298.15 K, x2 = 0.2001	1235.24	4.38
298.15 K, x2 = 0.3001	1286.4	6.59
298.15 K, x2 = 0.4013	1324.12	9.61
298.15 K, x2 = 0.5004	1353.84	13.44
298.15 K, x2 = 0.5995	1377.94	18.55
298.15 K, x2 = 0.6929	1396.05	24.32
298.15 K, x2 = 0.814	1410.84	32.91
298.15 K, x2 = 0.9001	1429.79	41.25
303.15 K, x2 = 0	1045.31	1.48
303.15 K, x2 = 0.0493	1109.25	1.83
303.15 K, x2 = 0.1001	1157.05	2.3
303.15 K, x2 = 0.1526	1197	2.98
303.15 K, x2 = 0.2001	1229.97	3.9
303.15 K, x2 = 0.3001	1281.21	5.87
303.15 K, x2 = 0.4013	1318.98	8.14
303.15 K, x2 = 0.5004	1348.71	11.56
303.15 K, x2 = 0.5995	1372.86	15.74
303.15 K, x2 = 0.6929	1390.95	20.81
303.15 K, x2 = 0.814	1405.72	27.46
303.15 K, x2 = 0.9001	1424.69	34.24
308.15 K, x2 = 0	1039.85	1.4
308.15 K, x2 = 0.0493	1103.89	1.73
308.15 K, x2 = 0.1001	1151.73	2.13
308.15 K, x2 = 0.1526	1191.76	2.78
308.15 K, x2 = 0.2001	1224.72	3.51
308.15 K, x2 = 0.3001	1276.02	5.33
308.15 K, x2 = 0.4013	1313.79	7.28
308.15 K, x2 = 0.5004	1343.59	10.05
308.15 K, x2 = 0.5995	1367.78	13.61
308.15 K, x2 = 0.6929	1385.91	17.63
308.15 K, x2 = 0.814	1400.7	23.24
308.15 K, x2 = 0.9001	1419.71	28.09
313.15 K, x2 = 0	1034.33	1.33
313.15 K, x2 = 0.0493	1098.48	1.63
313.15 K, x2 = 0.1001	1146.34	1.99
313.15 K, x2 = 0.1526	1186.34	2.55
313.15 K, x2 = 0.2001	1219.4	3.21
313.15 K, x2 = 0.3001	1270.76	4.72
313.15 K, x2 = 0.4013	1308.61	6.41
313.15 K, x2 = 0.5004	1338.44	8.82
313.15 K, x2 = 0.5995	1362.65	11.75
313.15 K, x2 = 0.6929	1380.83	15.03
313.15 K, x2 = 0.814	1395.6	19.76
313.15 K, x2 = 0.9001	1414.64	23.76
318.15 K, x2 = 0	1028.79	1.25
318.15 K, x2 = 0.0493	1093.01	1.53
318.15 K, x2 = 0.1001	1140.96	1.86
318.15 K, x2 = 0.1526	1181.02	2.36
318.15 K, x2 = 0.2001	1214.09	2.94
318.15 K, x2 = 0.3001	1265.51	4.23
318.15 K, x2 = 0.4013	1303.39	5.76
318.15 K, x2 = 0.5004	1333.28	7.74
318.15 K, x2 = 0.5995	1357.54	10.26
318.15 K, x2 = 0.6929	1375.74	13.01
318.15 K, x2 = 0.814	1390.55	16.82
318.15 K, x2 = 0.9001	1409.63	20.35
323.15 K, x2 = 0	1023.19	1.18
323.15 K, x2 = 0.0493	1087.48	1.46
323.15 K, x2 = 0.1001	1135.51	1.72
323.15 K, x2 = 0.1526	1175.61	2.21
323.15 K, x2 = 0.2001	1208.72	2.7
323.15 K, x2 = 0.3001	1260.23	3.92
323.15 K, x2 = 0.4013	1298.21	5.18
323.15 K, x2 = 0.5004	1328.11	6.91
323.15 K, x2 = 0.5995	1352.41	9.02
323.15 K, x2 = 0.6929	1370.64	11.4
323.15 K, x2 = 0.814	1385.49	14.41
323.15 K, x2 = 0.9001	1404.58	17.27
